For data set [1] the following is noted: without irradiation and chemotherapy; cited from earlier work.
A further data set has as its system MitoPark™ mice. The data set is described as follows: Spontaneous locomotor activity of MitoPark mice. Type of data set: in vivo. The source says: Vertical movements declined earlier and faster than horizontal movements (data not shown), modeling the early occurrence of axial postural instability in PD. […] The MitoPark™ mice began to lose weight from ˜20 weeks and died at 29-33 weeks of age, at which point the majority of substantia nigra DA neurons had been lost.

A further data set deals with mice. The data set is described as follows: Motor coordination tests in MPTP-only model. Type of data set: in vivo. Particulars: MPTP-treated group vs saline-treated controls. The source says: MPTP/probenecid mouse model. […] In addition, spontaneous recovery of the nigrostriatal system that is typically observed with this regimen places limits on detection of changes in motor coordination. Mice were subjected to tests for motor coordination, including rotarod test, gait test/foot print analysis, pole test, beam walking test, and grid test.

The test system of data set [2] is TH-positive neurons in the SNpc. The data set is described as follows: Stereology of TH-positive neurons in SNpc after MPTP. Particulars: MPTP-alone regimen.
Method: (§1) Eight weeks after transplantation, recipient mice were injected with MPTP to induce dopaminergic neurodegeneration. MPTP dissolved in saline was injected subcutaneously into MSP-GDNF and MSP-GFP mice as follows: 15 mg/kg free base MPTP on day 1, 25 mg/kg on day 2, and 30 mg/kg on days 3-7. Control mice were treated with saline following the same regimen. Nine weeks after the last injection of MPTP or saline, MSP-GFP mice were sacrificed to evaluate the differentiation of gene-modified macrophages into microglia and their recruitment to substantia nigra.
Three or nine weeks after the last MPTP or saline injection, recipient mice were sacrificed and the neuroprotective effect of macrophage-mediated GDNF delivery on the nigrostriatal dopaminergic system was assessed by quantitative analysis of TH-positive neurons in the substantia nigra pars compacta (SNpc), as well as the density of TH-positive terminals in the striatum. […] In addition, total number of Nissl-stained neurons in the SNpc was counted for each treatment group to make sure that GDNF treatment indeed prevented actual cell death (FIG. 8).
Data set [3] has as its system TH-positive cells in the SNpc. The data set is described as follows: Continuous MPTP osmotic minipump infusion, TH-positive and GFP cells in SNpc. Type of data set: in vivo, mice. Particulars: continuous infusion 5 mg MPTP/kg daily for 28 days. As for the experimental part:
FIGS. 7A-B. Plots of quantitative stereologic data illustrating TH-positive cells in the SNpc from mice that were continuously treated with saline (n=3) or 5 mg MPTP/kg daily (n=2) for 28 days (FIG. 7A). Semi-quantitative analysis of GFP-positive cells in the nigra of mice that were continuously treated with saline (n=3) or 5 mg MPTP/kg daily (n =2) for 28 days. Each bar represents the mean±standard error of the total number of GFP-positive cells per five representative sections of substantia nigra pars compacta per animal (FIG. 7B).
The minipumps were implanted subcutaneously on the upper back of the animal. The minipumps delivers saline or MPTP at a flow rate 0.35μ1/hr for 28 days. The concentration of MPTP solution was adjusted in such a way that the animals receive or 5 mg MPTP/kg daily for 28 days. On day 30 (after the start of MPTP or saline) the animals were killed and the brains were analyzed for the loss of TH-posive cells and the recruitment bone marrow derived GFP cells in the SNpc.

Data set [4] concerns substantia nigra microglia. Briefly: Recruitment of bone marrow-derived microglia to substantia nigra after MPTP. Type of data set: in vivo. Particulars: MSP-GFP mice nine weeks after the last injection of MPTP.
Method: as §1
The conditions of data set [5]: cited from earlier work.

Take `c1cc(CN2CCCNCCNCCCNCC2)ccc1CN1CCCNCCNCCCNCC1` [AMD3100]: the “effectiveness as conditioning regimen” value in data set [1] is recorded as “not to be sufficiently effective”.

As to `N[C@@H](Cc1ccc(O)c(O)c1)C(=O)O` [L-DOPA], the locomotor deficits entry in the data set on MitoPark™ mice was “transiently reversed”.

As for `CN1CC=C(c2ccccc2)CC1` [MPTP, 1-methyl-4-phenyl-1,2,3,6-tetrahydropyridine], the “motor coordination (rotarod, gait/foot print, pole, beam walking, grid test)” value with mice is on record as “None of these tests showed statistically significant differences”. The “reduction in TH-positive cells” value in data set [2] is “approximately 50%”. In addition, in data set [3], the “increase in the number of bone marrow derived GFP cells in the SNpc” value is reported as “four-fold” and the “loss of TH-positive cells in the SNpc” value was “approximately 31%”. For the same molecule, the “proportion of total microglia (Iba1-positive) in the nigra that were bone marrow derived” value in data set [4] is 47%.

B1: glial cell line derived neurotrophic factor (protein, UniProt P39905 78-211, looked up)
Glial cell line-derived …: SPDKQMAVLPRRERNRQAAAANPENSRGKGRRGQRGKNRGCVLTAIHLNVTDLGLGYETKEELIFRYCSGSCDAAETTYDKILKNLSRNRRLVSDKVGQACCRPIAFDDDLSFLDDNLVYHILRKHSAKRCGCI
As for B1, the side effects result in data set [5] (direct brain infusion) was “side effects, including allodynia and weight loss”. Besides, the cerebellar toxicity entry in data set [5] (high doses (100 μg/day) intraputamenal) is “significant cerebellar Purkinje cell death”.

The values above are taken from patent publication US20200306313A1, “METHODS AND COMPOSITIONS FOR NON-CYTOTOXIC STEM CELL TRANSPLANTATION” (THE BOARD OF REGENTS OF THE UNIVERSITY OF TEXAS SYSTEM, priority 2014, published 2020).
